Source: PMC11143257, “Atomistic mechanism of coupling between cytosolic sensor domain and selectivity filter in TREK K2P channels” (Nature Communications, 2024)
Changes are numbered by the printed parent chain. Values belong to the compound of their own block, whether it stands above or below them.

How the values were obtained:
[1] = system: WT hTREK-2; assay: Direct application of PKC inhibitor, oocytes; assay type: cell-based, human; conditions: oocytes expressing WT hTREK-2
Text: This study by Türkaydin and colleagues combines functional studies of TREK channels with MD simulations and proposes an explanation for the molecular mechanism of phosphorylation-mediated regulation of channel activity, and a general framework for how down-to-up transitions of TM4 is coupled to activation of the SF gate. Using elegant MTS-modification, phospho-mimetic mutagenesis, and norfluoxetine sensitivity experiment - and […]
TM4 increases channel opening which is a plausible explanation for the inverse inhibitory effect of phosphorylation of the extended M4 helix.
The molecular dynamics approaches are mostly outside of my expertise and so I cannot comment on the technical elements. However, the interaction network analysis supports previous models that upwards movement of TM4 is associated with opening of the SF gate and highlights previously identified and potential novel residues responsible. […]
results provide interesting advances which improve our understanding of TREK channel […]
We thank the reviewer for the positive evaluation of our work and the many helpful comments to improve the manuscript. The reviewer specific comments are addressed below:
- and this is an excellent opportunity to clarify some important outstanding questions in the […]
state. This is an interesting and important finding, which would help to explain TREK channel regulation in vivo. […]

[2] = system: hTREK-1; assay: Direct application of PKC inhibitor, HEK293 whole-cell; assay type: cell-based, human; conditions: 1.0 µM; HEK293 cells, whole-cell configuration; within 30 min; n = 6
Protocol: Further, we also tested the direct application of 1.0 µM of the PKC inhibitor BIM I to HEK293 cells (in whole-cell configuration) expressing hTREK-1. Similarly, under these conditions, TREK-1 channel currents were not altered within 30 min. (n = 6). Thus, it appears that under […]
of the PKC site. Unfortunately, it is not known which phosphatase mediates the dephosphorylation of the PKC site in TREK channels nor are pharmacological phosphatase activators known that could be used promote the dephosphorylation.
The interaction network analysis provides possible explanations for how TM4 movement is transduced to SF gate opening. As mentioned, this analysis highlights a number of residues […]
W326, R237 in Dong et al., 2015). The authors are well placed to determine whether mutation of these residues, in silico, destabilizes the down-state and to show how this might promote stabilization of the conductive SF. […]
through interaction network analysis and previous mutation studies, can aid in studying the conformational change from down- to up-state in the channel and how this is related to the conformational change in the SF. However, the timescale for the conformational movement in […]
2 channels. In only 3 out of 7 simulations, each lasting 3 μs, did we observe a complete transition from up to down. […]
well-suited for assessing the impact of mutations. […]

[3] = biological target: T1, TREK-2* (Homo sapiens, UniProt P57789); assay: Activation of truncated construct; assay type: cell-based; set-up: was truncated from WT and includes amino acids 67 - 355; expressed in transfected cells; host or cells: Xenopus laevis oocytes (cRNA injection, pFAW vector); conditions: comparable to WT, peer review file
T1 sequence (P57789 67-355 isoform P57789-4): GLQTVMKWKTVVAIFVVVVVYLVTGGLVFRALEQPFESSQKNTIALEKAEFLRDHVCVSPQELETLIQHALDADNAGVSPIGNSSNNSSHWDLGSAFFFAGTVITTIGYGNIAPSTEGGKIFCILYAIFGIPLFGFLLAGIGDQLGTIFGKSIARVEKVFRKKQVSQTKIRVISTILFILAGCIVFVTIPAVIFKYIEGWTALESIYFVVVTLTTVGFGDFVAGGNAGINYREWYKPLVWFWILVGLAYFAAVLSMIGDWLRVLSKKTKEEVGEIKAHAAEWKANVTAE
Text: page 27: Answer: We agree with the reviewer that applying statistical tests to our simulation data would enhance the confidence in interpreting some of the results. However, in this study, due to the relatively large size of the systems that require extensive simulation time, we were limited to conducting only five to seven independent simulation runs for each setup. According to the checklist and recommendations provided by Nature Journal (PMID: 36918708), a minimum of three simulations per condition is advisable. Given that we only have data from these limited simulation runs, conducting a p-test is challenging. Nonetheless, as we noted in the main text, in all 5 simulations of the down-state, we observed a robust conformational change at the S1 binding site. Conversely, in all five up-state simulations, the SF remained a conductive conformation. […] Minor comments: Are there any differences in function between full-length TREK-2 and the TREK-2* construct? […] 22

[4] = biological target: T2, TREK-1 F325C (Homo sapiens, UniProt O95069, F325C); assay: MTS probe modification, inside-out patch-clamp; assay type: cell-based; conditions: MTS-ET+ 1 mM, symmetrical K+, -80 mV (Supplementary Fig. 2d)
T2 construct: expressed in transfected cells; host or cells: Xenopus laevis oocytes (cRNA injection), excised inside-out patches
T2 sequence (O95069 1-426 F325C): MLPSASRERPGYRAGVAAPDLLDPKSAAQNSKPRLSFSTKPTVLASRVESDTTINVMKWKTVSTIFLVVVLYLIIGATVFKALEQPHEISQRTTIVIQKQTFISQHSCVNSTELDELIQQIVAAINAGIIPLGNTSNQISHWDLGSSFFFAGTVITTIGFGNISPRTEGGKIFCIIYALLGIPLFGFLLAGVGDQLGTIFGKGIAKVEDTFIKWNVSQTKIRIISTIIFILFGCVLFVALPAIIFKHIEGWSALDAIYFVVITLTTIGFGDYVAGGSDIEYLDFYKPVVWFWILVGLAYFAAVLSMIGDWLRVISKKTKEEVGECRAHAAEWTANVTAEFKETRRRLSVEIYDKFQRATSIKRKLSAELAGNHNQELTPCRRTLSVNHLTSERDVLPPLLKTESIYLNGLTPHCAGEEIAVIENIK
Protocol: (§1) First, we measured WT TREK-1, WT TRAAK and TREK-2^* channels without modifiable cysteine residues as references. […] Note, that patch integrity and channel regulation were tested with either 1 mM tetra-pentyl-ammonium (TPenA) and a short pHi activation step. Next, we conducted systematic cysteine scanning mutagenesis of the entire pCt and examined the effect of charged and aliphatic MTS probes.
(§2) Xenopus laevis oocytes were surgically removed from anesthetized adult females, treated with type II collagenase (Sigma-Aldrich/Merck, Germany) and manually defolliculated. A solution containing the K^+ channel-specific cRNA at a desired concentration was injected into Dumont stage V - VI oocytes and subsequently incubated at 17 °C in a solution containing (mM): 54 NaCl, […], 2.4 NaHCO3, 0.82 MgSO4 x 7 H2O, 0.41 CaCl2, 0.33 Ca(NO3)2 x 4 H2O and 7.5 TRIS (pH 7.4 adjusted with NaOH/HCl) for 1 - 7 days before use. Patch-clamp recordings in an inside-out configuration under voltage-clamp conditions were performed at room temperature (22 - 24 °C). Patch pipettes were made from thick-walled borosilicate glass GB 200TF-8P (Science Products, Germany), had resistances of 0.2 - 0.5 MΩ (tip diameter of 10 - 25 µm) and filled with a pipette solution (in mM): 120 KCl, 10 HEPES and 3.6 CaCl2 (pH 7.4 adjusted with KOH/HCl). Intracellular bath solutions and compounds were applied to the cytoplasmic side of excised patches for the various K^+ channels via a gravity flow multi-barrel pipette system. The intracellular solution had the following composition (in mM): 120 KCl, 10 HEPES, 2 EGTA, and 1 Pyrophosphate (pH adjusted with KOH/HCl). Currents were recorded with an EPC10 amplifier (HEKA electronics, Germany) and sampled at 10 kHz or higher and filtered with 3 kHz (-3 dB) or higher as appropriate for the sampling rate.
(§3) Tetra-pentyl-ammonium chloride (TPenA) was purchased from Merck (Sigma-Aldrich), prepared as 100 mM stocks in intracellular recording solution, stored at −20 °C and diluted to a final concentration in intracellular recording solution before measurements. Decyl-MethaneThioSulfonate (Decyl-MTS), (2-(trimethylammonium)ethyl)MethaneThioSulfonate bromide (MTS-ET^+) and Sodium (2-sulfonatoethyl)MethaneThioSulfonate (MTS-ES^-) were purchased from Toronto Research Chemicals. MTS-ET^+ was directly dissolved to the desired concentration of 1 mM in the intracellular recording solution before each experiment. MTS-ET^+ was used immediately after dilution for maximally 5 min. Decyl-MTS and […] were prepared as 10 - 100 mM stocks in DMSO and diluted to the desired concentration before the measurements.
(§4) The fold current increase (fold activation) of a ligand (decyl-MTS) was calculated from the following equation:1 FoldactivationFA=Iactivated/Ibasal with Iactivated represents the stable current level in the presence of 100 µM decyl-MTS and Ibasal the measured current before application of the MTS probe.

[5] = biological target: T3, TREK-1 T318C (Homo sapiens, UniProt O95069, T318C); assay: MTS probe modification, inside-out patch-clamp; assay type: cell-based; conditions: MTS-ET+ 1 mM, symmetrical K+, -80 mV (Supplementary Fig. 2d)
T3 construct: expressed in transfected cells; host or cells: Xenopus laevis oocytes (cRNA injection), excised inside-out patches
T3 sequence (O95069 1-426 T318C): T2 sequence (O95069 1-426 F325C) with T318C, C325F
Protocol: as §1, §2, §3, §4

[6] = biological target: T4, TREK-1 V322C (Homo sapiens, UniProt O95069, V322C); assay: MTS probe modification, inside-out patch-clamp; assay type: cell-based; conditions: MTS-ET+ 1 mM, symmetrical K+, -80 mV (Supplementary Fig. 2d)
T4 construct: expressed in transfected cells; host or cells: Xenopus laevis oocytes (cRNA injection), excised inside-out patches
T4 sequence (O95069 1-426 V322C): T2 sequence (O95069 1-426 F325C) with V322C, C325F
Protocol: as §1, §2, §3, §4

Compound: CN(C)CCCn1cc(C2=C(c3c[nH]c4ccccc34)C(=O)NC2=O)c2ccccc21 [BIM I, Bisindolylmaleimide I]
effect on current [1]: did not observe a current increase | effect on TREK-1 channel currents [2]: not altered

activation [3]: activated
Compound: CCCCC/C=C\C/C=C\C/C=C\C/C=C\CCCC(=O)O [arachidonic acid]

Compound: (2-(trimethylammonium)ethyl)MethaneThioSulfonate bromide [MTS-ET^+]
effect of charged MTS probe on activity [4]: channel inhibition | effect of charged MTS probe on activity [5]: channel inhibition | effect of charged MTS probe on activity [6]: channel inhibition
